Laboratory results from ChEMBL document CHEMBL1133068, “Novel 2,2-dioxide-4,4-disubstituted-1,3-H-2,1,3-benzothiadiazines as non-nucleoside reverse transcriptase inhibitors” (Bioorg Med Chem Lett, 2000).
Where a name gives a salt, the structure may show the parent alone. Calls of active or inactive are those of the source. The calls are words filed in the database; no cut-off is given here.

What was measured:
[1] = The compound was evaluated for antiviral activity using whole cell assay; type: functional
[2] = molecular target: T1, Human immunodeficiency virus type 1 reverse transcriptase (Human immunodeficiency virus 1, UniProt Q72547); assay: The compound was evaluated for the inhibition of HIV-1 reverse transcriptase
[3] = molecular target: T1, Human immunodeficiency virus type 1 reverse transcriptase; assay: The compound was evaluated for the inhibition of HIV-1 reverse transcriptase; Inactive
[4] = The compound was evaluated for antiviral activity using whole cell assay; Inactive; type: functional

| SMILES | IC90 [1] | IC50 [2] | IC50 [3] | IC90 [4] |
| --- | --- | --- | --- | --- |
| O=C1Nc2ccc(Cl)cc2[C@@](C#CC2CC2)(C(F)(F)F)N1 | 0.002 µM | 0.031 µM |  |  |
| CC(C)C#CC1(C2CC2)NS(=O)(=O)Nc2ccc(Cl)cc21 (stereo not drawn) | 0.182 µM | 4.63 µM |  |  |
| CC(C)Nc1cccnc1N1CCN(C(=O)c2cc3cc(NS(C)(=O)=O)ccc3[nH]2)CC1 [DELAVIRDINE MESYLATE] | 0.05 µM |  |  |  |
| CCC#CC1(C2CC2)NS(=O)(=O)Nc2ccc(Cl)cc21 (stereo not drawn) | 0.611 µM |  | Not Active |  |
| O=S1(=O)Nc2ccc(Cl)cc2C(C#CC2CC2)(C2CC2)N1 (stereo not drawn) | 0.279 µM | 35.9 µM |  |  |
| CCC#CC1(C(C)C)NS(=O)(=O)Nc2ccc(Cl)cc21 (stereo not drawn) | 0.961 µM |  | Not Active |  |
| O=S1(=O)Nc2ccc(F)c(F)c2C(C#CC2CC2)(C(F)(F)F)N1 (stereo not drawn) | 0.284 µM | 24.7 µM |  |  |
| O=C1Nc2ccc(Cl)cc2[C@@](C#CC2CC2)(C(F)(F)F)O1 [EFAVIRENZ] | 0.0017 µM |  |  |  |
| Cc1ccnc2c1NC(=O)c1cccnc1N2C1CC1 [NEVIRAPINE] | 0.037 µM |  |  |  |
| O=S1(=O)Nc2ccc(Cl)cc2C(C#Cc2ccccn2)(C2CC2)N1 (stereo not drawn) |  |  | Not Active | inactive |
| CC(C)C#CC1(C(C)C)NS(=O)(=O)Nc2ccc(Cl)cc21 (stereo not drawn) | 0.643 µM | 0.137 µM |  |  |
| CC(C)C1(C#CC2CC2)NS(=O)(=O)Nc2ccc(Cl)cc21 (stereo not drawn) | 0.677 µM |  | Not Active |  |
| O=S1(=O)Nc2ccc(Cl)cc2C(C#Cc2ccccc2)(C2CC2)N1 (stereo not drawn) |  |  | Not Active | inactive |
